Source: ChEMBL document CHEMBL5325501, “Discovery of BWA-522, a First-in-Class and Orally Bioavailable PROTAC Degrader of the Androgen Receptor Targeting N-Terminal Domain for the Treatment of Prostate Cancer” (J Med Chem, 2023)
The source made the active and inactive calls. No cut-off for these calls is given here.

Assays:
[1] = AUC(0 to t) in beagle dog at 5 mg/kg, po measured by LC-MS/MS analysis; format: ADME, organism-based, Canis lupus familiaris; set-up: dose 5 mg/kg, route po; settings: in vivo
VCaP [2] = test: Induction of apoptosis in human VCaP cells assessed as caspase-3 cleavage at 5 to 10 uM incubated for 48 hrs by Western blot analysis; format: functional, cell-based; settings: dose 5-10 µM
[3] = Downregulation of PSA protein level in human VCaP cells at 10 uM incubated for 48 hrs by Western blot analysis relative to control; format: functional
CWR22R [4] = test: Antiproliferative activity against enzalutamide-resistant human 22Rv1 cells assessed as reduction in cell viability incubated for 6 days by CCK-8 assay; format: functional, cell-based; settings: 22Rv1, 144 h
LNCaP [5] = test: Antitumor activity against human LNCaP cells xenografted in NOD SCID mouse assessed as inhibition of tumor volume at 20 to 60 mg/kg, po administered daily for 4 weeks; format: functional, organism-based; settings: dose 20-60 mg/kg
[6] = Half-life in beagle dog at 5 mg/kg, po measured by LC-MS/MS analysis; format: ADME, organism-based, Canis lupus familiaris; settings: in vivo
[7] = Half-life in ICR mouse at 2 mg/kg, iv measured by LC-MS/MS analysis; format: ADME, organism-based; settings: in vivo
LNCaP [8] = test: Antiproliferative activity against AR-dependent human LNCaP cells assessed as reduction in cell viability at 3 to 10 uM incubated for 6 days by CCK-8 assay; format: functional, cell-based; settings: dose 3-10 µM, time 6.0 day
VCaP [9] = test: Antiproliferative activity against human VCaP cells assessed as reduction in cell viability incubated for 6 days by CCK-8 assay; format: functional, cell-based; settings: 144 h
[10] = Tmax in ICR mouse at 10 mg/kg, po measured by LC-MS/MS analysis; format: ADME, organism-based; settings: in vivo
[11] = Stability in mouse plasma assessed as parent compound remaining measured after 15 mins by LC-MS/MS analysis; format: ADME, cell-free; settings: read-out: Stability
[12] = Metabolic stability in human liver microsomes assessed as half-life at 2 uM preincubated for 10 mins in the presence of NADPH followed by compound addition and measured after 60 mins by LC-MS/MS analysis; format: ADME, Microsome
[13] = Half-life in beagle dog at 1 mg/kg, iv measured by LC-MS/MS analysis; format: ADME, organism-based, Canis lupus familiaris; settings: in vivo
[14] = Stability in human plasma assessed as parent compound remaining measured immediately by LC-MS/MS analysis; format: ADME, cell-free; settings: read-out: Stability
[15] = Downregulation of PSA protein level in human LNCaP cells at 10 uM incubated for 48 hrs by Western blot analysis relative to control; format: functional
LNCaP [16] = test: Downregulation of PSA protein level in human LNCaP cells incubated for 48 hrs by Western blot analysis; format: functional, cell-based; settings: dose 1-10 µM
[17] = Toxicity in ICR mouse assessed as testicle damage at 20 to 60 mg/kg, po administered daily for 14 days; format: organism-based; settings: in vivo, 336 h, dose 20-60 mg/kg, time 14 day
[18] = Metabolic stability in human liver microsomes assessed as parent compound remaining at 2 uM preincubated for 10 mins in the presence of NADPH followed by compound addition and measured after 60 mins by LC-MS/MS analysis; format: ADME, Microsome; settings: read-out: Stability
[19] = Metabolic stability in mouse liver microsomes assessed as parent compound remaining at 2 uM preincubated for 10 mins in the presence of NADPH followed by compound addition and measured after 60 mins by LC-MS/MS analysis; format: ADME, Microsome; settings: read-out: Stability
[20] = Stability in human plasma assessed as parent compound remaining measured after 45 mins by LC-MS/MS analysis; format: ADME, cell-free; settings: read-out: Stability
VCaP [21] = test: Antiproliferative activity against AR-dependent human VCaP cells assessed as reduction in cell viability at 3 to 10 uM incubated for 6 days by CCK-8 assay; format: functional, cell-based; settings: dose 3-10 µM, time 6.0 day
[22] = Cmax in ICR mouse at 10 mg/kg, po measured by LC-MS/MS analysis; format: ADME, organism-based; set-up: dose 10 mg/kg, route po; settings: in vivo
[23] = Toxicity in NOD SCID mouse xenografted with human LNCaP cells assessed as body weight loss at 20 to 60 mg/kg, po administered daily for 4 weeks; format: organism-based; settings: in vivo, 672 h, dose 20-60 mg/kg
[24] = Half-life in ICR mouse at 10 mg/kg, po measured by LC-MS/MS analysis; format: ADME, organism-based; settings: in vivo
[25] = Stability in mouse plasma assessed as parent compound remaining measured after 45 mins by LC-MS/MS analysis; format: ADME, cell-free; settings: read-out: Stability
VCaP [26] = test: Downregulation of TMPRSS2 protein level in human VCaP cells incubated for 48 hrs by Western blot analysis; format: functional, cell-based; settings: dose 1-10 µM
[27] = Metabolic stability in mouse liver microsomes assessed as parent compound remaining at 2 uM preincubated for 10 mins followed by compound addition and measured after 60 mins by LC-MS/MS analysis; format: ADME, Microsome; settings: read-out: Stability
[28] = Metabolic stability in mouse liver microsomes assessed as intrinsic clearance at 2 uM preincubated for 10 mins in the presence of NADPH followed by compound addition and measured per mg protein after 60 mins by LC-MS/MS analysis; format: ADME, Microsome; settings: read-out: CLH
[29] = Metabolic stability in mouse liver microsomes assessed as half-life at 2 uM preincubated for 10 mins in the presence of NADPH followed by compound addition and measured after 60 mins by LC-MS/MS analysis; format: ADME, Microsome
[30] = Stability in mouse plasma assessed as parent compound remaining measured after 120 mins by LC-MS/MS analysis; format: ADME, cell-free; settings: read-out: Stability
[31] = Metabolic stability in human liver microsomes assessed as parent compound remaining at 2 uM preincubated for 10 mins followed by compound addition and measured after 60 mins by LC-MS/MS analysis; format: ADME, Microsome; settings: read-out: Stability
[32] = Toxicity in ICR mouse assessed as spleen damage at 20 to 60 mg/kg, po administered daily for 14 days; format: organism-based; settings: in vivo, 336 h, dose 20-60 mg/kg, time 14 day
CWR22R [33] = test: Inhibition of colony formation in human 22Rv1 cells incubated for 2 weeks by crystal violet staining based analysis; format: functional, cell-based; settings: dose 1-10 µM
[34] = Toxicity in ICR mouse assessed as heart damage at 20 to 60 mg/kg, po administered daily for 14 days; format: organism-based; settings: in vivo, 336 h, dose 20-60 mg/kg, time 14 day
[35] = Tmax in beagle dog at 1 mg/kg, iv measured by LC-MS/MS analysis; format: ADME, organism-based, Canis lupus familiaris; settings: in vivo
LNCaP [36] = test: Downregulation of FKBP51 protein level in human LNCaP cells incubated for 48 hrs by Western blot analysis; format: functional, cell-based; settings: dose 1-10 µM
LNCaP [37] = test: Antitumor activity against human LNCaP cells xenografted in NOD SCID mouse assessed as tumor growth inhibition at 20 mg/kg, po administered daily for 4 weeks relative to control; format: functional; settings: 672 h, read-out: TGI
[38] = Downregulation of TMPRSS2 protein level in human VCaP cells at 10 uM incubated for 48 hrs by Western blot analysis relative to control; format: functional
[39] = Toxicity in ICR mouse assessed as liver damage at 20 to 60 mg/kg, po administered daily for 14 days; format: organism-based; settings: in vivo, 336 h, dose 20-60 mg/kg, time 14 day
DU-145 = test: Antiproliferative activity against AR-independent human DU-145 cells assessed as reduction in cell viability at 10 uM incubated for 6 days by CCK-8 assay; format: functional, cell-based; settings: time 6.0 day
[40] = Toxicity in ICR mouse assessed as kidney damage at 20 to 60 mg/kg, po administered daily for 14 days; format: organism-based; settings: in vivo, 336 h, dose 20-60 mg/kg, time 14 day
[41] = Clearance in beagle dog at 1 mg/kg, iv measured by LC-MS/MS analysis; format: ADME, organism-based, Canis lupus familiaris; settings: in vivo
[42] = Stability in human plasma assessed as parent compound remaining measured after 60 mins by LC-MS/MS analysis; format: ADME, cell-free; settings: read-out: Stability

AUCt [1]: 1.411 µg·h/mL | half-life [6]: 31.2 h | half-life [7]: 8.2 h | IC50 (VCaP [9]): 5.59 µM | Tmax [10]: 4.7 h | remaining at 0.25 h [11]: 88% | half-life at 2 µM [12]: 3.12 h | half-life [13]: 9.9 h | remaining at 0 min [14]: 100% | remaining at 1 h, 2 µM [18]: 80.9% | remaining at 1 h, 2 µM [19]: 78.2% | remaining at 0.75 h [20]: 93.9% | Cmax [22]: 0.376 µg/mL | half-life [24]: 7.9 h | remaining at 0.75 h [25]: 102% | remaining at 1 h, 2 µM [27]: 99.5% | microsomal CLint at 2 µM [28]: 7.4 µL/min/mg | half-life at 2 µM [29]: 3.12 h | remaining at 2 h [30]: 91.2% | remaining at 1 h, 2 µM [31]: 94% | Tmax [35]: 6 min | clearance [41]: 0.932 L/h/kg | remaining at 1 h [42]: 91.9%
SMILES: CC(C)(c1ccc(OCC2CCN(CC3CCN(c4ccc5c(c4)C(=O)N(C4CCC(=O)NC4=O)C5=O)CC3)CC2)cc1)c1ccc(OC[C@H](O)CCl)cc1 (stereo partly drawn)
Activity (VCaP [2]): Active | Activity [3]: >80% | IC50 (CWR22R [4]): 4.08 µM | Activity (LNCaP [5]): Active | Activity (LNCaP [8]): Active | Activity [15]: ~15% | Activity (LNCaP [16]): Dose-Dependent Effect | Activity [17]: Non-Toxic | Activity (VCaP [21]): Active | Activity [23]: Non-Toxic | Activity (VCaP [26]): Dose-Dependent Effect | Activity [32]: Non-Toxic | inhibition (CWR22R [33]): Dose-Dependent Effect | Activity [34]: Non-Toxic | Activity (LNCaP [36]): Dose-Dependent Effect | inhibition in vivo at 20 mg/kg (LNCaP [37]): 26% | Activity [38]: ~40% | Activity [39]: Non-Toxic | Activity (DU-145): inactive | Activity [40]: Non-Toxic
